In general, IC50 refers to the concentration that gives 50% inhibition.

Where a name gives a salt, the structure may show the parent alone.

Sequence of human P2X4 receptor (Q99571 whole entry): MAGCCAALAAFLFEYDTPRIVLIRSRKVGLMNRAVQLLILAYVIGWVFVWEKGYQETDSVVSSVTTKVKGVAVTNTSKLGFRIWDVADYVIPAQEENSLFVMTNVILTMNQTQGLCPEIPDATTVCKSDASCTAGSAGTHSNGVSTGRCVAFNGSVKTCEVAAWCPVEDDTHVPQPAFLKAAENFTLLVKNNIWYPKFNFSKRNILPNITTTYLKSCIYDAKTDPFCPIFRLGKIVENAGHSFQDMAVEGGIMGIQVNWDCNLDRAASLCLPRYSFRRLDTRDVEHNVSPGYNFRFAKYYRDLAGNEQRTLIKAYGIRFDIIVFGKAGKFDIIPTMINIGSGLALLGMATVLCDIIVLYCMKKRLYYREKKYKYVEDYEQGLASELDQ

The assay concerns the target human P2X4 receptor (Homo sapiens (Human), UniProt Q99571). In words: P2X4 receptor antagonist activity (ATP-induced intracellular calcium, Fura-2 AM). Type of assay: cell-based. Conditions: 1321N1 cells stably expressing human P2X4 receptor; test substance 15 minutes before addition of ATP; Fura-2 AM F340/F380; read-out: Inhibitory activity IC50. How it is done:
The ATP receptor (human P2X4) was introduced into the 1321N1 cells, and the cells were used as a stable ATP receptor expression system. The P2X4-expressing 1321N1 cells were seeded on a 96-well plate, cultured under the conditions of 37° C. and 5% CO2 for 24 hours, and used for calcium measurement. […] For the measurement, a microplate reader, Fluostar Optima (BMG Labtech), was used. The light emitted from a xenon lamp was passed through 340 nm and 380 nm filters, respectively, and irradiated on the cells, fluorescences of 510 nm, F340 and F380, emitted from the cells were measured, and change of the ratio F340/F380 was used as an index of change of intracellular calcium level. The measurement was performed by adding ATP to each well at a final concentration of 1 μM, and observing the ATP-induced Ca^2+ response over time.
The 1321N1 cells stably expressing human P2X4 receptor were seeded on a 96-well plate, cultured under the conditions of 37° C. and 5% CO2 for 24 hours, and then used for intracellular calcium measurement. Fura-2 AM, which is a calcium fluorescent indicator, was used for the intracellular calcium measurement. […] The ratio of fluorescence values obtained with excitation lights of 340 nm and 380 nm was used as an index of the change of intracellular calcium level, and the inhibitory activity of the test substance was calculated on the basis of the comparison with the value obtained in the absence of the test substance (control).
On the technique in general: Calcium flux is commonly read through the fluorescence of an indicator in the cells.
With `O=C1CN=C(c2ccc(-n3ccnc3CCc3ccccc3)cc2)c2ccc3ccccc3c2N1` [Example 41, 5-[4-(2-Phenethyl-1H-imidazol-1-yl)phenyl]-1H-naphtho[1,2-e][1,4]diazepin-2(3H)-one dihydrochloride], the IC50 was found to be 650 nM.

With `O=C1CC(=O)N(c2ccc(-c3nccn3CCc3ccccc3)c(O)c2)c2ccc3ccccc3c2N1` [Example 65, 5-[3-Hydroxy-4-(1-phenethyl-1H-imidazol-2-yl)-phenyl]-1H-naphtho[1,2-b][1,4]diazepine-2,4(3H,5H)-dione], the concentration for half-maximal inhibition (IC50) amounted to 130 nM.

In the case of `O=C1CC(=O)N(c2ccc(-n3nnnc3CCc3cccnc3)cc2)c2ccc3ccccc3c2N1` [Example 3, 5-[4-[5-[2-(Pyridin-3-yl)ethyl]-1H-tetrazol-1-yl]phenyl]-1H-naphtho[1,2-b][1,4]diazepine-2,4(3H,5H)-dione hydrochloride], the IC50 turned out to be 380 nM.

Consider `O=C1CC(=O)N(c2ccc(-n3ccnc3CCc3ccsc3)cc2)c2ccc3ccccc3c2N1` [Example 62, 5-[4-[2-[2-(Thiophen-3-yl)ethyl]-1H-imidazol-1-yl]phenyl]-1H-naphtho[1,2-b][1,4]diazepine-2,4(3H,5H)-dione hydrochloride], for which the IC50 came out at 88 nM.

Consider `NC(=O)c1cccc(CCc2nccn2-c2ccc(N3C(=O)CC(=O)Nc4c3ccc3ccccc43)cc2)c1` [Example 57, 3-[2-[1-[4-(2,4-Dioxo-3,4-dihydro-1H-naphtho[1,2-b][1,4]diazepin-5(2H)-yl)phenyl]-1H-imidazol-2-yl]ethyl]benzamide], for which the half-inhibitory concentration (IC50) came to 130 nM.

With `O=C1CC(=O)N(c2ccc(-n3ccnc3CCc3cccc(C(F)(F)F)c3)cc2)c2ccc3ccccc3c2N1` [Example 38, 5-[4-[2-[3-(Trifluoromethyl)phenylethyl]-1H-imidazol-1-yl]phenyl]-1H-naphtho[1,2-b][1,4]diazepine-2,4(3H,5H)-dione hydrochloride], the 50% inhibitory concentration (IC50) is 550 nM.

In the case of `O=C1CC(=O)N(c2ccc(-c3nccn3Cc3ccc(Cl)cc3)cc2)c2ccc3ccccc3c2N1` [Example 23, 5-[4-[1-(4-Chlorobenzyl)-1H-imidazol-2-yl]phenyl]-1H-naphtho[1,2-b][1,4]diazepine-2,4(3H,5H)-dione hydrochloride], the concentration for half-maximal inhibition (IC50) worked out at 300 nM.

In the case of `O=C1CC(=O)N(c2ccc(-n3ccnc3CCc3ccccn3)cc2)c2ccc3ccccc3c2N1` [Example 71, 5-[4-[[2-(Pyridin-2-yl)ethyl]-1H-imidazol-1-yl]phenyl]-1H-naphtho[1,2-b][1,4]diazepine-2,4(3H,5H)-dione dihydrochloride], the 50% inhibitory concentration (IC50) turned out to be 590 nM.

In the case of `Cc1cccc(CCc2nnnn2-c2ccc(N3C(=O)CC(=O)Nc4c3ccc3ccccc43)cc2)n1` [Example 30, 5-[4-[5-[2-(6-Methylpyridin-2-ylethyl)-1H-tetrazol-1-yl]-phenyl]-1H-naphtho[1,2-b][1,4]diazepine-2,4(3H,5H)-dione hydrochloride], the IC50 turned out to be 270 nM.

On to `O=C1CC(=O)N(c2ccc(-n3ccnc3CCc3ccco3)cc2)c2ccc3ccccc3c2N1` [Example 66, 5-[4-[2-[2-(Furan-2-yl)ethyl]-H-imidazol-1-yl]-phenyl]-1H-naphtho[1,2-b][1,4]diazepine-2,4(3H,5H)-dione hydrochloride], for which the IC50 was 550 nM.

As for `CN(C)c1ccccc1Cc1nnnn1-c1ccc(N2C(=O)CC(=O)Nc3c2ccc2ccccc32)cc1` [Example 47, 5-[4-[5-[2-(Dimethylamino)benzyl]-1H-tetrazol-1-yl]phenyl]-1H-naphtho[1,2-b][1,4]diazepine-2,4(3H,5H)-dione mesylate], the 50% inhibitory concentration (IC50) was determined as 94 nM.

Regarding `O=C1CC(=O)N(c2ccc(-n3nnnc3Cc3ccccc3O)cc2)c2ccc3ccccc3c2N1` [Example 2, 5-[4-[5-(2-Hydroxybenzyl)-1H-tetrazol-1-yl]phenyl]-1H-naphtho[1,2-b][1,4]diazepine-2,4(3H,5H)-dione], the IC50 was determined as 37 nM.

As to `O=C1CC(=O)N(c2ccc(-c3nccn3CCc3cccc(O)c3)cc2)c2ccc3ccccc3c2N1` [Example 27, 5-[4-[1-(3-Hydroxyphenethyl)-1H-imidazol-2-yl]phenyl]-1H-naphtho[1,2-b][1,4]diazepine-2,4(3H,5H)-dione], the half-inhibitory concentration (IC50) came to 78 nM.

For the compound `N#Cc1ccccc1CCc1nccn1-c1ccc(N2C(=O)CC(=O)Nc3c2ccc2ccccc32)cc1` [Example 54, 2-[2-[1-[4-(2,4-Dioxo-3,4-dihydro-1H-naphtho[1,2-b][1,4]diazepin-5(2H)-yl)phenyl]-1H-imidazol-2-yl]ethyl]benzonitrile], the IC50 was determined as 190 nM.

Consider `NC(=O)c1ccccc1CCc1nccn1-c1ccc(N2C(=O)CC(=O)Nc3c2ccc2ccccc32)cc1` [Example 55, 2-[2-[1-[4-(2,4-Dioxo-3,4-dihydro-1H-naphtho[1,2-b][1,4]diazepin-5(2H)-yl)phenyl]-1H-imidazol-2-yl]ethyl]benzamide], for which the IC50 turned out to be 340 nM.

For the compound `COc1ccccc1Cc1nnnn1-c1ccc(C2=NCC(=O)Nc3c2ccc2ccccc32)cc1` [Example 19, 5-[4-[5-(2-Methoxybenzyl)-1H-tetrazol-1-yl]phenyl]-1H-naphtho[1,2-e][1,4]diazepin-2(3H)-one], the IC50 was found to be 320 nM.

For the compound `O=C1CC(=O)N(c2ccc(-n3ccnc3CNc3ccccc3)cc2)c2ccc3ccccc3c2N1` [Example 80, 5-[4-[2-[(Phenylamino)methyl]-1H-imidazol-1-yl]phenyl]-1H-naphtho[1,2-b][1,4]diazepine-2,4(3H,5H)-dione], the half-maximal inhibitory concentration (IC50) worked out at 1300 nM.

On to `COc1cccc(CCn2ccnc2-c2ccc(N3C(=O)CC(=O)Nc4c3ccc3ccccc43)cc2)c1` [Example 25, 5-[4 [1-(3-Methoxyphenethyl)-1H-imidazol-2-yl]phenyl]-1H-naphtho[1,2-b][1,4]diazepine-2,4(3H,5H)-dione], for which the IC50 is 82 nM.

Consider `O=C1CC(=O)N(c2ccc(-n3nnnc3CCc3ccccc3)cc2)c2ccc3ccccc3c2N1` [Example 4, 5-[4-(5-Phenethyl-1H-tetrazol-1-yl)phenyl]-1H-naphtho[1,2-b][1,4]diazepine-2,4(3H,5H)-dione], for which the concentration for half-maximal inhibition (IC50) was found to be 44 nM.

`O=C1CC(=O)N(c2ccc(-n3ccnc3COc3ccccc3)cc2)c2ccc3ccccc3c2N1` [Example 68, 5-[4-[2-(Phenoxymethyl)-1H-imidazol-1-yl]phenyl]-1H-naphtho[1,2-b][1,4]diazepine-2,4(3H,5H)-dione]: the half-inhibitory concentration (IC50) came out at 790 nM.

Take `COc1cccc(CCc2nccn2-c2ccc(N3C(=O)CC(=O)Nc4c3ccc3c4CCC3)cc2)c1` [Example 61, 5-[4-[2-(3-Methoxyphenethyl)-1H-imidazol-1-yl]phenyl]-5,8,9,10-tetrahydroindeno[4,5-b][1,4]diazepine-2,4(1H,3H)-dione hydrochloride]: the IC50 worked out at 74 nM.

Consider “5-[4-[(5-Phenylethyl)-1H-imidazol-4-yl]phenyl]-1H-naphtho[1,2-b][1,4]diazepine-2,4(3H,5H)-dione hydrochloride [Example 73]”, for which the concentration for half-maximal inhibition (IC50) turned out to be 320 nM.

For `O=C1CC(=O)N(c2ccc(-n3ccnc3CCc3cccc(F)c3)cc2)c2ccc3ccccc3c2N1` [Example 31, 5-[4-[(2-(3-Fluorophenyl)ethyl)-1H-imidazol-1-yl]phenyl]-1H-naphtho[1,2-b][1,4]diazepine-2,4(3H,5H)-dione hydrochloride], the half-inhibitory concentration (IC50) is 51 nM.

Regarding `O=C1CC(=O)N(c2ccc(-n3ccnc3-c3ccccc3)cc2)c2ccc3ccccc3c2N1` [Example 50, 5-[4-(2-Phenyl-1H-imidazol-1-yl)phenyl]-1H-naphtho[1,2-b][1,4]diazepine-2,4(3H,5H)-dione], the concentration for half-maximal inhibition (IC50) was found to be 3700 nM.

With `COc1ccccc1CCc1nccn1-c1ccc(N2C(=O)CC(=O)Nc3c2ccc2ccccc32)cc1` [Example 32, 5-[4-[(2-(2-Methoxyphenyl)ethyl)-1H-imidazol-1-yl]phenyl]-1H-naphtho[1,2-b][1,4]diazepine-2,4(3H,5H)-dione hydrochloride], the IC50 was 180 nM.

Take `O=C1CC(=O)N(c2ccc(-n3ccnc3CCc3ccccc3F)cc2)c2ccc3c(c2N1)CCC3` [Example 67, 5-[4-[2-(2-Fluorophenethyl)-1H-imidazol-1-yl]phenyl]-5,8,9,10-tetrahydroindeno[4,5-b][1,4]diazepine-2,4(1H,3H)-dione]: the IC50 was 53 nM.

For `O=C1CN=C(c2ccc(-n3nnnc3CCc3ccccc3)cc2)c2ccc3ccccc3c2N1` [Example 40, 5-[4-(5-Phenethyl-1H-tetrazol-1-yl)phenyl]-1H-naphtho[1,2-e][1,4]diazepin-2(3H)-one], the half-inhibitory concentration (IC50) is 630 nM.

With `NC(=O)c1ccccc1Cn1ccnc1-c1ccc(N2C(=O)CC(=O)Nc3c2ccc2ccccc32)cc1` [Example 53, 2-[[2-[4-(2,4-Dioxo-3,4-dihydro-1H-naphtho[1,2-b][1,4]diazepin-5(2H)-yl)phenyl]-1H-imidazol-1-yl]methyl]benzamide], the IC50 was 590 nM.

In the case of `O=C1CC(=O)N(c2ccc(-n3ccnc3CCc3cccc(F)c3)cc2)c2ccc3c(c2N1)CCC3` [Example 79, 5-[4-[2-(3-Fluorophenethyl)-1H-imidazol-1-yl]phenyl]-5,8,9,10-tetrahydroindeno[4,5-b][1,4]diazepine-2,4(1H,3H)-dione hydrochloride], the half-inhibitory concentration (IC50) amounted to 39 nM.

Values taken from patent US9873683B2, “P2X4 receptor antagonist” (NIPPON CHEMIPHAR CO., LTD., priority 2013, dated 2018).
